In US9796687B2, “S-substituted quinazolines and their therapeutic applications for the treatment of diseases mediated by PDE7” (Consejo Superior De Investigaciones Cientificas (CSIC), priority 2016, dated 2017):
Like-named read-outs stand apart in the source and are kept apart here. Values belong to the molecule of their own block, whether it stands above or below them.

Key:
PDE7A1 = PDE7A1 (Homo sapiens (Human), UniProt Q13946); assay: PDE7 inhibition, commercial phosphodiesterase activity kit ([3H]cAMP, SPA); type: biochemical
PDE7A1, sequence (Q13946 whole entry, species assumed): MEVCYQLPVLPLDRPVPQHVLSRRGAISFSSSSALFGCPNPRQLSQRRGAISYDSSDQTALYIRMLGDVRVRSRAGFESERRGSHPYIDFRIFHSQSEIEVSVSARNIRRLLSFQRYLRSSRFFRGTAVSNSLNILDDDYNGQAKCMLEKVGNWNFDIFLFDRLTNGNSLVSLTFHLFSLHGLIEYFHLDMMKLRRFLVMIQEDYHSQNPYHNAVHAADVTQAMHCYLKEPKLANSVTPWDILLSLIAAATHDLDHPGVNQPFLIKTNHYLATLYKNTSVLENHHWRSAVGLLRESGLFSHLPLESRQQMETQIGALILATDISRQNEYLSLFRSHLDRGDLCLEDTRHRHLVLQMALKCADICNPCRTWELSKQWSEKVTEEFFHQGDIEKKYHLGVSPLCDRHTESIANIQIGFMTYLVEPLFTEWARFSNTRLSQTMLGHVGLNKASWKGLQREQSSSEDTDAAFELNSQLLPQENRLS
Protocol: Measurement of PDE7 inhibition was carried out using a commercial phosphodiesterase activity measurement kit.
Some of the compounds of the present invention (including those synthesised in Example 1) were evaluated. For this purpose, said compounds were incubated (in a range of concentrations from 0.1 nM to 100 μM) in the presence of 0.02 U/well of PDE7A1 and 0.05 μCi of [^3H] cAMP, for 20 minutes at 30° C. in the assay buffer supplied with the kit (total volume per well=100 μL). Once this time had elapsed, 50 μL of a 20 mg/mL suspension of SPA glass silicate microspheres were added and kept in agitation at ambient temperature for 60 minutes. After allowing the plate to rest for 20 minutes, the radioactivity was tested in a scintillation detector. All the assays included two points in the absence of PDE7A1 (blank/negative control) and two points with PDE7A1 in the absence of inhibitors (positive control).
The data were adjusted with a software program using non-linear adjustment.

[1] = Parallel artificial membrane permeability assay (PAMPA) for CNS / blood-brain barrier permeability; details: pH 7.4
Protocol: (§1) PDVF membrane filters were used for filtering the samples (diameter 30 mm, pore size 0.45 μm).
(§2) Ten reference compounds were selected whose passage across the blood-brain barrier is known and in the public domain, in order to validate the experiment. […] The solutions were filtered. Afterwards, 180 μL of a solution of PBS/ethanol (70/30) were added to each well of the acceptor plate. The donor plate was impregnated with 4 μL of a solution of porcine brain lipid dissolved in dodecane (20 mg mL-1).
(§3) After 5 minutes, 180 μL of solution of each compound were added to this plate.
(§4) The donor plate was then placed on the acceptor plate, forming a kind of sandwich, and left to incubate for 2 h and 30 min at 25° C. The compounds passed by passive transport from the donor plate, through the porcine brain lipid, to the acceptor plate. After 2 h and 30 min, the donor plate was carefully removed.
(§5) The concentration and absorbance, both of the commercial compounds and of the compounds of the present invention that were evaluated in the acceptor and donor plates, were determined using a UV absorbance reader. Each sample was analysed at different wavelengths (between 3 and 5 absorbance minima and maxima were chosen for each compound at wavelength valves of between 220 nm and 450 nm), in 3 wells and in a minimum of 2 independent experiments. […] The measurements were carried out on the acceptor plate.

hERG channel = hERG channel (Homo sapiens (Human), UniProt Q12809); assay: Toxicity on the cardiac hERG channel, FluxOR thallium fluorescence assay in HEK293 cells; type: cell-based
hERG channel, sequence (Q12809 whole entry): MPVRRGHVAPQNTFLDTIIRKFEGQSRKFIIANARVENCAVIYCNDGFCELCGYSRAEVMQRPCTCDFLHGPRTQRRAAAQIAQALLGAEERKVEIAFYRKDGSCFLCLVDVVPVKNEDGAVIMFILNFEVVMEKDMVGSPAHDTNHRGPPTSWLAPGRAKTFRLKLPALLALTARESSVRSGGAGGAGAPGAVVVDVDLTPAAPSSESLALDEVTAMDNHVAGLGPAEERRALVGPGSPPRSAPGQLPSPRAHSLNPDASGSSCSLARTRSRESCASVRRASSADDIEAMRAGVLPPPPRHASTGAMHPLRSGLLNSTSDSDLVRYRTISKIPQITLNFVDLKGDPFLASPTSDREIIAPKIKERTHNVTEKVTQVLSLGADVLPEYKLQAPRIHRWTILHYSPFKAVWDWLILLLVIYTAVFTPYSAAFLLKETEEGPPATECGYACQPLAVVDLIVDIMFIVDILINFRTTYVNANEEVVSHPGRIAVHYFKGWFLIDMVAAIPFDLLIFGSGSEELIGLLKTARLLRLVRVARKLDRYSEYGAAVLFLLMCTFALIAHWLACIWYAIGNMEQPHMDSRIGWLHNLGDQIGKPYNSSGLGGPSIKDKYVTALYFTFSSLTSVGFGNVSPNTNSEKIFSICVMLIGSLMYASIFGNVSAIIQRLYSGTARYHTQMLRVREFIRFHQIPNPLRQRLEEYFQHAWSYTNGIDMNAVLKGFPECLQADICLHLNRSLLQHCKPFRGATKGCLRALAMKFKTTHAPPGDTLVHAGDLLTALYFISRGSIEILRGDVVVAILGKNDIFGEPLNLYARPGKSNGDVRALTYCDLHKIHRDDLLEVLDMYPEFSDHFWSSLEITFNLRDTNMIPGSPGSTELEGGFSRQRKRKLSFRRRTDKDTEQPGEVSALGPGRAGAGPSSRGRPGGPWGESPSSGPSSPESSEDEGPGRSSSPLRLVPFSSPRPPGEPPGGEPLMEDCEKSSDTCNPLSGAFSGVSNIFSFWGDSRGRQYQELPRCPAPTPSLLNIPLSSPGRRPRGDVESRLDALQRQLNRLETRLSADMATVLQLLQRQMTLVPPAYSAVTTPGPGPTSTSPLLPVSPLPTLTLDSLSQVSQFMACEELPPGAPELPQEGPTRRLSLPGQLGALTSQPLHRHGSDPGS
Description: The hERG potassium channel contributes in the final phase of the action potential, bringing the cell to its resting state. If a drug suppresses the activity of the channel, it can produce a prolongation of the […], known as “long QT syndrome”, resulting in a fatal ventricular arrhythmia.
To characterise the behaviour of the hERG potassium channel in the presence of the compounds of the present invention, use was made of an assay based on a fluorescent probe (FluxOR®, Life Technologies) with high affinity for thallium, an indicator of the activity of the potassium ion channel. When the potassium channels open in response to a stimulus, the influx of thallium from the external environment is detected by the probe. The fluorescent signal is therefore proportional to the number of open potassium channels in the cell. The FluxOR® is added in ester form without fluorescent emission capacity, thus preventing the emission of fluorescence outside the cell. When it enters the cell, the cytosol esterases activate the FluxOR®, so that it is capable of binding the thallium that passes into the cytoplasm through the hERG channel and of emitting fluorescence.
Black plates containing 96 wells treated with poly-D-lysine were seeded with HEK293 cells (deposit number ATCC CRL-1573) modified to stably express the hERG channel. […] After one hour of incubation of the fluorochrome with the cells at ambient temperature, the plates were washed with 50 μL of assay buffer. Subsequently, 20 μL of the compounds to be studied were added at a dilution of 1:200 (2 μL of compound/400 μL of assay buffer), in triplicate, on 12-point curves (1:2 dilutions of the compound in DMSO). […]. After 30 minutes of incubation, the plates were read in a FLIPR TETRA®, which added 5 μL of stimulus buffer (Tl2SO4+K2SO4). […]

in vivo = details: C57BL/6, mouse
Protocol: (§6) After the blood extraction, the mice of each group were sacrificed by asphyxia with CO2, in order to obtain the brain. The brains were washed in a cold solution, dried in filter paper, weighed and placed in polypropylene tubes. The brains were homogenised with a buffered solution of phosphate pH 7.4, so that the total volume of the homogenate was three times the weight of the brain. The samples were stored at −70° C. until their analysis.
(§7) The extraction procedure for the plasma/brain homogenate or plasma calibration standard/doped brain samples was the same: 100 μL of the internal standard (imipramine, 500 ng/mL) were added, prepared in acetonitrile, to 25 μL of sample (plasma/brain) or doped calibration standard, and agitated with a vortex agitator for 5 minutes. As a blank (negative control), only acetonitrile was added. The samples were centrifugated for 10 min at 15000 rpm (20600 g) at 4° C. 100 μL of each supernatant were transferred to 96-well plates for its analysis by liquid chromatography-tandem mass spectrometry (LC-MS/MS). The calibration standards were prepared by doping 10 μL of analyte (compound to be studied, 1 mg/mL) in 190 μL of virgin plasma/brain homogenate (and subsequent serial dilutions).
(§8) The pharmacokinetic study was performed based on the time-concentration data obtained for the plasma and brain, by means of non-compartmental analysis using version 5.2 of WinNonlin®. The areas under the concentration-time curve (AUClast and AUCinf) were calculated using the linear trapezoidal rule.
(§9) The only difference lay in the administration of the compounds, which was via the oral route, in a suspension consisting of Tween 80 0.1% v/v and sodium carboxymethyl cellulose (NaCMC) 0.5% w/v in water. The compounds were administered at a dosage of 10 mg/kg, by gastric intubation using a 22-gauge oral feeding needle.

PDE4D3 = PDE4D3 (Homo sapiens (Human), UniProt Q08499); assay: PDE4D3 inhibition; type: biochemical
PDE4D3, sequence (Q08499 other isoform, or with tags, fused parts or gaps): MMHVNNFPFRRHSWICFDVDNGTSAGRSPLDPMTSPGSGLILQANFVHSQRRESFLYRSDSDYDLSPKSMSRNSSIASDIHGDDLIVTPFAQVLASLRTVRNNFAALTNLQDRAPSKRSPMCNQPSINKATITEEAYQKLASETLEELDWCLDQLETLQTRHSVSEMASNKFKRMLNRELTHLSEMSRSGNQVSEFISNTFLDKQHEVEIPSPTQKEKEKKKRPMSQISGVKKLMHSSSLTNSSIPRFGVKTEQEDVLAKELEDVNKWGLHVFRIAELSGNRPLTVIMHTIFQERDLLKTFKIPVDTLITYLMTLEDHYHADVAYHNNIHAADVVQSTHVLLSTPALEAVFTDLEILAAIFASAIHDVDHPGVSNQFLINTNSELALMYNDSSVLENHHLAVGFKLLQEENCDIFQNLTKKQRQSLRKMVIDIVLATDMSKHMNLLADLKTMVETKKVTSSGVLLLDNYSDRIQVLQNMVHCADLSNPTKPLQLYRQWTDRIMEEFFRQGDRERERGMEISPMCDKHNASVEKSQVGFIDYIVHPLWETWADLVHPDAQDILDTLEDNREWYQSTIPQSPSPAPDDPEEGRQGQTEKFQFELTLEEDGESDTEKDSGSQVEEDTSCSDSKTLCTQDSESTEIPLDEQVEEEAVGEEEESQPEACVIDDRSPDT

[2] = Pharmacokinetic studies in mice: exposure in plasma and brain; details: for levels in plasma and brain 2 hours after administration (elimination): intraperitoneal or oral administration; for Kp / Tmax / Cmax: C57BL/6, mouse; for Kp: brain; for Tmax: plasma and brain; for Cmax: plasma
Protocol: as §6, §7, §8, §9

PDE4B2 = PDE4B2 (Homo sapiens (Human), UniProt Q07343); assay: PDE4B2 inhibition; type: biochemical
PDE4B2, sequence (Q07343 other isoform, or with tags, fused parts or gaps, species assumed): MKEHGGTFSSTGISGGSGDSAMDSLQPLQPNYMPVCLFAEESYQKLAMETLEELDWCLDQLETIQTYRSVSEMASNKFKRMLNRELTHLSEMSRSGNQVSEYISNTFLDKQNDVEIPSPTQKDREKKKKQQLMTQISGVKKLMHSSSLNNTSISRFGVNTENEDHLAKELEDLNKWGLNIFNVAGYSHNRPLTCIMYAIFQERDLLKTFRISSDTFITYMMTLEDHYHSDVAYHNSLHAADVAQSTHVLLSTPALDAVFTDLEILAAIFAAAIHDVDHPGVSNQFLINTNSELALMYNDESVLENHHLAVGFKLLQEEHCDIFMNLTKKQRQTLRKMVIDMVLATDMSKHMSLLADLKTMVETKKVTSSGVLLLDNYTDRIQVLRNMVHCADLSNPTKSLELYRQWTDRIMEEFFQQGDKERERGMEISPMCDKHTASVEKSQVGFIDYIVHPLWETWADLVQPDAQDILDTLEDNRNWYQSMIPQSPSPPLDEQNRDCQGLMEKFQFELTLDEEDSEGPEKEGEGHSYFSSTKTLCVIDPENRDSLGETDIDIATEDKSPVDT

in vitro = details: PAMPA, pH 7.4
Protocol: as §1, §2, §3, §4, §5

[3] = mice, intraperitoneal administration, 10 mg/kg
[4] = mice, oral administration, 10 mg/kg
[5] = mice, oral administration, 10 mg/kg, Tmax 0.5 h

SMILES: CCSc1nc2c(Cl)cccc2c(=O)n1-c1c(F)cccc1F [Compound 18, 8-Chloro-2-ethylthio-3-(2,6-difluorophenyl)-4-oxo-3,4-dihydroquinazoline]
IC50 (PDE7A1; read-out: PDE7A IC50): 2.44 µM

SMILES: CN1C(C(=O)Nc2ccccn2)=C(O)c2ccccc2S1(=O)=O [Piroxicam, piroxicam]
Papp at 2.5 h [1]: 0.2 ± 0.1 ×10⁻⁶ cm/s

SMILES: CC(C)(C)CSc1nc2ccccc2c(=O)n1-c1ccccc1 [Compound 5, 3-Phenyl-2-neopentylthio-4-oxo-3,4-dihydroquinazoline]
IC50 (hERG channel): > 30 µM
cardiotoxic potential (hERG channel; deduced from hERG data): did not have any cardiotoxic potential
Kp (in vivo): > 1
Cmax (in vivo; ip, 10 mg/kg): 2310 nM
Kp (in vivo; ip, 10 mg/kg): 2.45
Tmax (in vivo; ip, 10 mg/kg): 15 min
Cmax (in vivo; po, 10 mg/kg): 1380 nM
Kp (in vivo; po, 10 mg/kg): 1.19
Tmax (in vivo; po, 10 mg/kg): 30 min
inhibition at 10 µM (PDE4D3): 37%
IC50 (PDE7A1; Table 3, read-out: PDE inhibitory activity PDE7A CI50): 0.1 µM
IC50 (PDE7A1; read-out: PDE7A IC50): 0.1 µM
Cmax/PDE7 IC50 ratio, brain [2, 3]: 56.5
Cmax/PDE7 IC50 ratio, plasma [2, 3]: 23.1
Brain Cmax ([2]; mice, intraperitoneal administration, 10 mg/kg, Tmax 0.25 h): 5650 nM
levels in plasma and brain 2 hours after administration (elimination) ([2]; mice, 10 mg/kg): still considerable levels
Cmax/PDE7 IC50 ratio, brain [2, 4]: 16.4
Cmax/PDE7 IC50 ratio, plasma [2, 4]: 13.8
Brain Cmax [2, 5]: 1640 nM
inhibition at 10 µM (PDE4B2): 29%

SMILES: Cc1ccccc1-n1c(SCC(C)(C)C)nc2ccccc2c1=O [Compound 13, 3-(2-Methylphenyl)-2-neopentylthio-4-oxo-3,4-dihydroquinazoline]
Papp at 2.5 h (in vitro): 3.9 ± 0.7 ×10⁻⁶ cm/s
IC50 (PDE7A1; read-out: PDE7A IC50): 1.85 µM

Papp at 2.5 h (in vitro): 15.9 ± 1.3 ×10⁻⁶ cm/s
IC50 (PDE7A1; read-out: PDE7A IC50): 2.6 µM
SMILES: O=c1c2ccccc2nc(SCc2ccncc2)n1-c1ccccc1 [Compound 27, 3-Phenyl-2-(4-pyridylmethylthio)-4-oxo-3,4-dihydroquinazoline]

Papp at 2.5 h (in vitro): 12.1 ± 3.9 ×10⁻⁶ cm/s
IC50 (PDE7A1; read-out: PDE7A IC50): 0.54 µM
SMILES: O=c1[nH]c(SCc2cccnc2)nc2c(Cl)cccc12 [Compound 25, 8-Chloro-2-(3-pyridylmethylthio)-4-oxo-3,4-dihydroquinazoline]

SMILES: CCSc1nc2ccccc2c(=O)n1-c1ccccc1 [Compound 16, 2-Ethylthio-3-phenyl-4-oxo-3,4-dihydroquinazoline]
Papp at 2.5 h (in vitro): 7.9 ± 1.2 ×10⁻⁶ cm/s
IC50 (PDE7A1; read-out: PDE7A IC50): 6.9 µM

IC50 (PDE7A1; read-out: PDE7A IC50): 0.09 µM
SMILES: O=c1c2ccccc2nc(SCc2ccc3ccccc3c2)n1-c1ccccc1 [Compound 28, 3-Phenyl-2-(2-naphthylmethylthio)-4-oxo-3,4-dihydroquinazoline]

SMILES: O=c1c2ccccc2nc(SCC2CCCCC2)n1-c1ccccc1 [Compound 1, 2-Cyclohexylmethylthio-3-phenyl-4-oxo-3,4-dihydroquinazoline]
inhibition at 10 µM (PDE4D3): 49%
IC50 (PDE7A1; read-out: PDE7A IC50): 0.2 µM
inhibition at 10 µM (PDE4B2): 18%

Papp at 2.5 h (in vitro): 18.6 ± 1.7 ×10⁻⁶ cm/s
IC50 (PDE7A1; read-out: PDE7A IC50): 0.7 µM
SMILES: O=c1c2ccccc2nc(SCc2cccnc2)n1-c1ccccc1 [Compound 24, 3-Phenyl-2-(3-pyridylmethylthio)-4-oxo-3,4-dihydroquinazoline]

SMILES: CCSc1nc2ccccc2c(=O)n1-c1c(F)cccc1F [Compound 17, 2-Ethylthio-3-(2,6-difluorophenyl)-4-oxo-3,4-dihydroquinazoline]
Papp at 2.5 h (in vitro): 4.8 ± 0.6 ×10⁻⁶ cm/s
IC50 (PDE7A1; read-out: PDE7A IC50): 6.99 µM

inhibition at 10 µM (PDE4D3): 38%
IC50 (PDE7A1; read-out: PDE7A IC50): 0.6 µM
inhibition at 10 µM (PDE4B2): 28%
SMILES: O=c1c2ccccc2nc(SCc2ccccc2)n1-c1ccccc1 [Compound 21, 2-Benzylthio-3-phenyl-4-oxo-3,4-dihydroquinazoline]

SMILES: O=c1c2ccccc2nc(SCC2CC2)n1-c1ccccc1Br [Compound 14, 3-(2-Bromophenyl)-2-cyclopropylmethylthio-4-oxo-3,4-dihydroquinazoline]
Papp at 2.5 h (in vitro): 1.9 ± 0.3 ×10⁻⁶ cm/s
IC50 (PDE7A1; read-out: PDE7A IC50): 9.44 µM

SMILES: O=c1c2ccccc2nc(SCC2CCCCC2)n1-c1ccccc1Br [Compound 2, 3-(2-Bromophenyl)-2-cyclohexylmethylthio-4-oxo-3,4-dihydroquinazoline]
IC50 (PDE7A1; read-out: PDE7A IC50): 2.11 µM

SMILES: CC(C)(C)CSc1nc2c(Cl)cccc2c(=O)n1-c1ccccc1 [Compound 11, 8-Chloro-3-phenyl-2-neopentylthio-4-oxo-3,4-dihydroquinazoline]
IC50 (PDE7A1; read-out: PDE7A IC50): 1.2 µM

Papp at 2.5 h (in vitro): 12.4 ± 2.2 ×10⁻⁶ cm/s
IC50 (PDE7A1; read-out: PDE7A IC50): 0.8 µM
SMILES: O=c1c2ccccc2nc(SCc2ccccn2)n1-c1ccccc1 [Compound 23, 3-Phenyl-2-(2-pyridylmethylthio)-4-oxo-3,4-dihydroquinazoline]

SMILES: Cc1cccc2c(=O)n(-c3c(F)cccc3F)c(SCC(C)(C)C)nc12 [Compound 6, 3-(2,6-Difluorophenyl)-8-methyl-2-neopentylthio-4-oxo-3,4-dihydroquinazoline]
IC50 (PDE7A1; read-out: PDE7A IC50): 8.67 µM

SMILES: Cc1ccccc1-n1c(SCc2cccnc2)nc2ccccc2c1=O [Compound 26, 3-(2-Methylphenyl)-2-(3-pyridylmethylthio)-4-oxo-3,4-dihydroquinazoline]
Papp at 2.5 h (in vitro): 20.1 ± 0.1 ×10⁻⁶ cm/s
IC50 (PDE7A1; read-out: PDE7A IC50): 0.12 µM

Kp ([2]; ip, 10 mg/kg): 0.51
Kp ([2]; other: intraperitoneal and oral, 10 mg/kg): < 1
Kp ([2]; po, 10 mg/kg): 0.43
Tmax ([2]; ip, 10 mg/kg): 15 min
Tmax ([2]; po, 10 mg/kg): 30 min
Cmax ([2]; ip, 10 mg/kg): 6790 nM
Cmax ([2]; po, 10 mg/kg): 860 nM
Cmax/PDE7 IC50 ratio, brain [2, 3]: 3.33
Cmax/PDE7 IC50 ratio, plasma [2, 3]: 6.53
levels in plasma and brain 2 hours after administration (elimination) ([2]; mice, 10 mg/kg): almost eliminated
Cmax/PDE7 IC50 ratio, brain [2, 4]: 0.36
Cmax/PDE7 IC50 ratio, plasma [2, 4]: 0.83
Brain Cmax [2, 5]: 370 nM
Brain Cmax ([2]; mouse, in vivo): 3460 nM
SMILES: S=c1[nH]c2ccccc2c(=S)n1-c1ccccc1 [TC3.6, 3-Phenyl-2,4-dithioxo-1,2,3,4-tetrahydroquinazoline]
IC50 (hERG channel; stimulated the opening of the potassium channel, HEK293 hERG, FluxOR): 5.19 µM

SMILES: Cc1cccc2c(=O)n(-c3c(F)cccc3F)c(SCC3CC3)nc12 [Compound 15, 2-Cyclopropylmethylthio-3-(2,6-difluorophenyl)-8-methyl-4-oxo-3,4-dihydroquinazoline]
Papp at 2.5 h (in vitro): 1.3 ± 0.9 ×10⁻⁶ cm/s
IC50 (PDE7A1; read-out: PDE7A IC50): 4.56 µM
